Results published in patent publication US10660967B2, “Curcumin conjugates and methods of use thereof” (priority 2016, dated 2020).
Like-named read-outs stand apart in the source and are kept apart here. Each block holds one compound with its values, some of them ahead of it.

How the values were obtained:
[1] = tested on: PHA-stimulated splenocytes; experiment: Proliferative response of PHA-stimulated splenocytes (MTT assay); format: cell-based; conditions: for Stimulation Index (average ± SD): PHA 5 μg/ml, 72 hr, compounds at 5 μM (method says 10 μM), ratio of O.D. versus vehicle control
Experimental: Immunomodulatory effects of the synthesized curcumin conjugates on the proliferative response of PHA-stimulated splenocytes were evaluated. The effect of curcumin and its amino acid conjugates on splenocyte viability and proliferation in response to a T cell miotgen (Phytohaemagglutinin; PHA) was evaluated using the MTT assay. Freshly prepared splenocytes (1×10^6 cells/200 μl/well) were cultured in a 96-well U-bottom microtiter plate (Nunc) in complete medium. Cells were treated with tested compounds at a final concentration of 10 μM, vehicle (DMSO) or left untreated in triplicate then incubated at 37° C. and 5% CO2. When testing the immunoregulatory effects of the compounds on splenocyte stimulation, PHA (5 μg/ml) was added to the culture media to induce T cell proliferation. The proliferative response to PHA+vehicle and vehicle alone served as controls. After 72 hr, media were removed after pelleting the cells by centrifugation and MTT salt solution (5 mg/ml) was added into each well then incubated at 37° C. for 4 h. Afterwards, formazan crystals were dissolved by adding 150 μl 10% sodium dodecyl sulfate (SDS). Absorbance was measured with a spectrophotometer at 570 nm and reference wavelength of 690 nm.
Splenocyte stimulation index was determined as the ratio of O.D. values in tested compounds versus vehicle control cultures.

[2] = tested on: lipopolysaccharide-stimulated peritoneal macrophages; experiment: Production of nitric oxide by lipopolysaccharide-stimulated peritoneal macrophages (Greiss reagent); format: cell-based; design: Potency (%): % inhibition of nitric oxide production relative to lipopolysaccharide-stimulated macrophages: concentration or dose not given beside the values; conditions: LPS-stimulated peritoneal macrophages; for Nitric oxide (nitrite) concentration, μM (average ± SD): 24 h, nitrite by Greiss reagent
Experimental: The effects of the synthesized curcumin conjugates on the production of nitric oxide (μM) by lipopolysaccharide-stimulated peritoneal macrophages were evaluated.
Two milliliters of macrophage cells were seeded in 12-well tissue culture plates in nitrite-free medium supplemented with 0.1% bovine serum albumin and incubated at 37° C. LPS±epinephrine, norepinephrine, or dopamine at […] concentrations was added to some wells. The concentrations of LPS used ranged from 0.5 to 10 ng/ml. After incubation for 24 h, supernatants were collected for measuring nitric oxide (NO) by spectrophotometry. The production of NO was determined from the accumulation of nitrite (NO2), the metabolic end product of NO metabolism, in the medium using the Greiss reagent. About equal volumes (100 μl) of sample and Greiss reagent (1:1 mixture of 1% sulfanilamide in 5% phosphoric acid, and 0.1% a-naphthylamine in distilled water) were mixed and incubated at room temperature for 15 min, and absorbance was measured at 532 nm on a spectrophotometer.

[3] = tested on: Salmonella typhi ATCC19430; experiment: Antimicrobial MIC, agar dilution; format: cell-based; conditions: Salmonella enterica, read-out: Minimum inhibitory concentration (MIC)
[4] = tested on: HCT116 (colon) carcinoma cell line; experiment: Anti-tumor properties, MTT; format: cell-based; conditions: Homo sapiens, HCT-116, 72 h; for activity at 100 µM: HCT116, 100 μM, read-out: Percentage growth of tumor cell lines treated with the tested compounds (±SD)
Experimental: (§1) Anti-tumor properties of curcumin conjugates were evaluated. The synthesized curcumin-amino acid conjugates and curcumin itself were screened for their antitumor properties against human tumor cell lines utilizing HepG2 (hepatocellular), MCF7 (breast), and HCT116 (colon) carcinoma cell lines by the standard mitochondrial dependent reduction of yellow MTT [3-(4,5-dimethylthiazol-2-yl)-2,5-diphenyl-tetrazolium bromide] to purple formazan technique. Cancer cells were obtained from the Egyptian Company for Production of Vaccines, Sera and Drugs (VACSERA), Cairo, Egypt. Media, chemicals and supplies for the bio-assay were obtained from Biowest, Gibco and Lonza Companies. Cells were suspended in RPMI-1640 medium for HepG2, DMEMF12 for MCF-7, and DMEM for HCT116 in addition to 1% antibiotic-antimycotic mixture (10 […] potassium penicillin, 10 […] streptomycin sulfate and […] amphotericin B), 10% fetal bovine serum and 1% L-glutamine at 37° C., under 5% CO2 and 95% humidity. Cells were seeded at a concentration of 10×10^3 cells per well in fresh complete growth medium in 96-well tissue culture microtiter plates for 24 h. Media was aspirated, 180 μL fresh medium (without serum) were added and cells were incubated with different concentrations of sample to give a final concentration of 100 μM. 0.5% DMSO was used as a negative control and doxorubicin was used as a positive control (standard reference). Triplicate wells were prepared for each individual tested compound/dose. After 72 h of incubation, the medium was aspirated, 40 μL MTT salt (2.5 mg ml^1) were added to each well and incubated for an additional 4 h at 37° C. To stop the reaction and dissolve the formed crystals, 200 μL of 10% sodium dodecyl sulfate (SDS) in deionized water were added to each well and incubated overnight at 37° C. The absorbance was then measured at 595 nm with a reference wavelength of 620 nm. Data were collected as mean values for experiments performed in triplicates for each compound which had been measured by MTT assay.
(§2) The percentage of cell survival was calculated according to equation (4): […]
(§3) The IC50 was determined using Graph-Pad PRISM version-5 software. Statistical calculations for determination of the mean and standard deviation (SD) values were determined by SPSS 16 software.

[5] = tested on: HepG2 (hepatocellular) carcinoma cell line; experiment: Anti-tumor properties, MTT; format: cell-based; conditions: Homo sapiens, 72 h; for activity at 100 µM: HepG2, 100 μM, read-out: Percentage growth of tumor cell lines treated with the tested compounds (±SD)
Experimental: as §1, §2, §3

[6] = tested on: MCF7 (breast) carcinoma cell line; experiment: Anti-tumor properties, MTT; format: cell-based; conditions: Homo sapiens, 72 h; for activity at 100 µM: MCF7, 100 μM, read-out: Percentage growth of tumor cell lines treated with the tested compounds (±SD)
Experimental: as §1, §2, §3

MCF-7 cells = experiment: Effect on doxorubicin induced cytotoxicity (MTT); conditions: for viability at 100 µM: read-out: Percentage of viable cells MCF-7 (average ± SD)
Experimental: The effects of curcumin conjugates on doxorubicin induced cytotoxicity were evaluated. In order to further examine whether curcumin derivatives can enhance conventional chemotherapeutic agents, MCF-7 cells were treated with 100 μM curcumin derivatives alone or in combination with 10 μM doxorubicin (DOX) for 48 hr. Control cultures received only medium, vehicle (DMSO), or vehicle+DOX. The percentage of viable cells was determined by MTT assay according to equation (5): […]

[7] = tested on: Staphylococcus aureus ATCC25923; experiment: Antimicrobial MIC, agar dilution
[8] = tested on: Streptococcus pyogenes ATCC19615; experiment: Antimicrobial MIC, agar dilution
[9] = tested on: Pseudomonas aeruginosa ATCC27853; experiment: Antimicrobial MIC, agar dilution
[10] = tested on: Candida albicans (local isolate); experiment: Antimicrobial MIC, agar dilution; conditions: Candida albicans, read-out: Minimum inhibitory concentration (MIC)
[11] = 10 μM DOX in combination with 100 μM curcumin derivative, 48 hr
[12] = ATCC25923, 18 h, read-out: Minimum inhibitory concentration (MIC)
[13] = ATCC25923, read-out: Minimum inhibitory concentration (MIC)
[14] = ATCC19615, 18 h, read-out: Minimum inhibitory concentration (MIC)
[15] = ATCC19615, read-out: Minimum inhibitory concentration (MIC)
[16] = ATCC27853, 18 h, read-out: Minimum inhibitory concentration (MIC)
[17] = ATCC27853, read-out: Minimum inhibitory concentration (MIC)

SMILES: COc1cc(/C=C/C(=O)CC(=O)/C=C/c2ccc(OC(=O)[C@H](C)NC(=O)OCc3ccccc3)c(OC)c2)ccc1OC(=O)[C@H](C)NC(=O)OCc1ccccc1 [Cbz-Ala-Cur, ((1E,6E)-3,5-dioxohepta-1,6-diene-1,7-diyl)bis(2-methoxy-4,1-phenylene) (2S,2′S)-bis(2-(((benzyloxy)carbonyl)amino)propanoate)]
Stimulation Index (average ± SD) [1]: 2.70 ± 0.25 | Potency (%): % inhibition of nitric oxide production relative to lipopolysaccharide-stimulated macrophages [2]: 8.86% | Nitric oxide (nitrite) concentration, μM (average ± SD) [2]: 24.89 ± 1.65 µM | MIC ([3]; 18 h): 0.5 µg/mL | MIC [3]: 0.642 µM | activity at 100 µM [4]: 86.6 ± 6.2% | activity at 100 µM [5]: 82.3 ± 4.2% | activity at 100 µM [6]: 70 ± 4.1% | Percentage of viable cells MCF-7 (average ± SD) (MCF-7 cells; [11]): 46.65 ± 2.06 | viability at 100 µM (MCF-7 cells; Homo sapiens, MCF7, 48 h): 99.5 ± 4.47% | MIC [7, 12]: 0.25 µg/mL | MIC [7, 13]: 0.321 µM | MIC [8, 14]: 0.125 µg/mL | MIC [8, 15]: 0.161 µM | MIC [9, 16]: 2 µg/mL | MIC [9, 17]: 2.57 µM | MIC ([10]; 18 h): 2 µg/mL | MIC [10]: 2.57 µM

SMILES: COc1cc(/C=C/C(=O)CC(=O)/C=C/c2ccc(OC(=O)CNC(=O)OCc3ccccc3)c(OC)c2)ccc1OC(=O)CNC(=O)OCc1ccccc1 [Cbz-Gly-Cur, ((1E,6E)-3,5-dioxohepta-1,6-diene-1,7-diyl)bis(2-methoxy-4,1-phenylene) bis(2-(((benzyloxy)carbonyl)amino)acetate)]
Stimulation Index (average ± SD) [1]: 2.64 ± 0.10 | Potency (%): % inhibition of nitric oxide production relative to lipopolysaccharide-stimulated macrophages [2]: 10.11% | Nitric oxide (nitrite) concentration, μM (average ± SD) [2]: 24.55 ± 0.66 µM | MIC ([3]; 18 h): 0.5 µg/mL | MIC [3]: 0.666 µM | activity at 100 µM [4]: 88.1 ± 2.6% | activity at 100 µM [5]: 79.8 ± 8.8% | activity at 100 µM [6]: 60 ± 2.7% | Percentage of viable cells MCF-7 (average ± SD) (MCF-7 cells; [11]): 45.44 ± 1.88 | viability at 100 µM (MCF-7 cells; Homo sapiens, MCF7, 48 h): 97.4 ± 5.3% | MIC [7, 12]: 0.125 µg/mL | MIC [7, 13]: 0.166 µM | MIC [8, 14]: 0.125 µg/mL | MIC [8, 15]: 0.166 µM | MIC [9, 16]: 1 µg/mL | MIC [9, 17]: 1.33 µM | MIC ([10]; 18 h): 0.5 µg/mL | MIC [10]: 0.666 µM

SMILES: COc1cc(/C=C/C(=O)CC(=O)/C=C/c2ccc(OC(=O)[C@H](CC(C)C)NC(=O)OCc3ccccc3)c(OC)c2)ccc1OC(=O)[C@H](CC(C)C)NC(=O)OCc1ccccc1 [Cbz-Leu-Cur, ((1E,6E)-3,5-dioxohepta-1,6-diene-1,7-diyl)bis(2-methoxy-4,1-phenylene) (2S,2′S)-bis(2-(((benzyloxy)carbonyl)amino)-4-methylpentanoate)]
Stimulation Index (average ± SD) [1]: 2.83 ± 0.17 | Potency (%): % inhibition of nitric oxide production relative to lipopolysaccharide-stimulated macrophages [2]: 4.57% | Nitric oxide (nitrite) concentration, μM (average ± SD) [2]: 26.06 ± 0.65 µM | MIC ([3]; 18 h): 0.25 µg/mL | MIC [3]: 0.29 µM | activity at 100 µM [4]: 94.7 ± 5.8% | activity at 100 µM [5]: 85.1 ± 5.7% | activity at 100 µM [6]: 85.7 ± 1.2% | Percentage of viable cells MCF-7 (average ± SD) (MCF-7 cells; [11]): 50.17 ± 4.94 | viability at 100 µM (MCF-7 cells; Homo sapiens, MCF7, 48 h): 98.2 ± 3.44% | MIC [7, 12]: 0.125 µg/mL | MIC [7, 13]: 0.145 µM | MIC [8, 14]: 0.125 µg/mL | MIC [8, 15]: 0.145 µM | MIC [9, 16]: 0.125 µg/mL | MIC [9, 17]: 0.145 µM | MIC ([10]; 18 h): 0.5 µg/mL | MIC [10]: 0.579 µM

SMILES: COc1cc(/C=C/C(=O)CC(=O)/C=C/c2ccc(OC(=O)[C@H](Cc3ccccc3)NC(=O)OCc3ccccc3)c(OC)c2)ccc1OC(=O)[C@H](Cc1ccccc1)NC(=O)OCc1ccccc1 [Cbz-Phe-Cur, ((1E,6E)-3,5-dioxohepta-1,6-diene-1,7-diyl)bis(2-methoxy-4,1-phenylene) (2S,2′S)-bis(2-(((benzyloxy)carbonyl)amino)-3-phenylpropanoate)]
Stimulation Index (average ± SD) [1]: 2.91 ± 0.13 | splenocyte proliferation, fold relative to untreated control cells ([1]; in the presence of PHA, text of b265): 3.81 fold | Potency (%): % inhibition of nitric oxide production relative to lipopolysaccharide-stimulated macrophages [2]: 3.60% | Nitric oxide (nitrite) concentration, μM (average ± SD) [2]: 26.33 ± 0.52 µM | MIC ([3]; 18 h): 0.125 µg/mL | MIC [3]: 0.134 µM | activity at 100 µM [4]: 96.4 ± 4% | activity at 100 µM [5]: 99.6 ± 8.7% | activity at 100 µM [6]: 69.3 ± 3% | Percentage of viable cells MCF-7 (average ± SD) (MCF-7 cells; [11]): 43.40 ± 4.74 | viability at 100 µM (MCF-7 cells; Homo sapiens, MCF7, 48 h): 105 ± 4.5% | MIC [7, 12]: 0.125 µg/mL | MIC [7, 13]: 0.134 µM | MIC [8, 14]: 0.125 µg/mL | MIC [8, 15]: 0.134 µM | MIC [9, 16]: 0.25 µg/mL | MIC [9, 17]: 0.269 µM | MIC ([10]; 18 h): 2 µg/mL | MIC [10]: 2.15 µM

IC50 ([4]; HCT116, MTT, read-out: IC50): 7.17 µM | IC50 ([5]; HepG2, MTT, read-out: IC50): 34.2 µM | IC50 ([6]; MCF7, MTT, read-out: IC50): 20.9 µM
SMILES: COc1cccc2c1C(=O)c1c(O)c3c(c(O)c1C2=O)C[C@@](O)(C(=O)CO)C[C@@H]3O[C@H]1C[C@H](N)[C@H](O)[C@H](C)O1 [DOX, doxorubicin, reference compound]
viability at 10 µM (MCF-7 cells; Homo sapiens, MCF7, 48 h, read-out: Percentage of viable cells MCF-7 (average ± SD), 10 μM DOX in combination with 100 μM curcumin derivative, 48 hr): 44.8% | Percentage of viable cells MCF-7 (average ± SD) (MCF-7 cells; human, 48 h, 100 μM): 0 ± 0.00
